Where two headings read alike, the source gives them in different places.
Tests used:
[1] = test system: thrombin mutant S195A; design: method as in PMID 29511224; conditions: cited from earlier work
[2] = test system: thrombin mutant S195A; assay: Rapid kinetics (stopped-flow) of FPR binding to thrombin
Description: An important validation of the method is offered by application to a case where all rate constants have been determined from analysis of the two relaxations (Equations 3 and 4). In this case, one can assume no knowledge of the fast relaxation and consider only the slow relaxation and equilibrium titrations. We illustrate this point using FPR binding to the thrombin mutant S195A, inactivated at the catalytic S195 to prevent hydrolysis ([30]). Two relaxations were reported for this case, along with equilibrium titrations (Fig. 3, A and B). Analysis of the slow relaxation α2(x) yields α(0) = 0.60 ± 0.06 s^−1, α(∞) = 17 ± 2 s^−1, xm = 4.3 ± 0.4 μM, and α(xm) = 8.8 ± 0.9 s^−1 (Fig. 3A and Table 2). […] Interpretation of the binding mechanism in terms of CS gives k12 = 17 ± 2 s^−1 and koff = 0.60 ± 0.06 s^−1. Application of Equation 11 yields kon = 2.4 ± 0.2 μM^−1s^−1 and Equation 9 gives αˆ(0)=k12+k21 = 19 ± 2 s^−1 from which a value of k21 = 2.0 ± 0.2 s^−1 can be obtained (Table 2). These values are in excellent agreement with the ones reported originally from analysis of the two independent relaxations (Table 2) ([30]). When used in Equation 3 to predict the dependence of the fast relaxation α1(x) on [FPR], the curve (discontinuous line) deviates little from experimental data (Fig. 3A, top portion of the panel). Values derived from analysis of the two relaxations are obviously more rigorous and should be preferred when available, but the accuracy of values obtained by application of the method based on Equation 11 is noteworthy. The discrepancies in Table 2 between values of k21 for CS or koff and k32 for IF are small and the fast relaxation ( α1 in Fig. 3A) predicted from knowledge of a single, saturable relaxation ( α2 in Fig. 3A), and equilibrium binding measurements (Fig. 3B) is in excellent agreement with experimental data.
Figure 3 Binding of FPR to thrombin.A, rapid kinetics of FPR binding to thrombin showing the fast ( α1 ) and slow ( α2 ) relaxations defining a mechanism of binding consistent with IF or CS (see also Fig. 1A). Continuous lines depict Equations 3 and 4 in the original report ([30]) with best-fit parameter values of Equation 1 or Equation 2 listed in Table 2. […] The discontinuous line for the slow relaxation was drawn with the empirical expression [α(0)xm+α(∞)x]/(xm+x) , where x = [FPR], with best-fit parameters listed in Table 2. The discontinuous line for the fast relaxation was drawn using Equation 3 with the four independent rate constants obtained from application of Equation 11 (Table 2). The predicted fast relaxation (discontinuous line) approximates quite well the actual experimental data and lends confidence to the validity of the method. B, fractional saturation of FPR binding to thrombin. […] This value, together with the parameters derived from analysis of the slow relaxation in panel A, allows for derivation of the value of kon from Equation 11. The four independent rate constants derived from application of the method compare well with the values determined from application of Equations 3 and 4 in the original report ([30]). Data in panels A and B were taken from ([30]) and were obtained under the following experimental conditions: 400 mM ChCl, 50 mM Tris, 0.1% PEG8000, pH 8, at 15 °C. CS, conformational selection; FPR, H-D-Phe-Pro-Arg-p-nitroanilide; IF, induced fit.
The data analyzed in this study, that is, FPR binding to prethrombin-2, prothrombin, and thrombin (Figs. 2, A and B and 3, A and B) were taken from ([30]) without modification. The methodology used to produce the recombinant proteins, measure FPR binding by stopped-flow or equilibrium titrations is reported in ([30]) and references therein. Values of the slow relaxation α(x) (Fig. 1, A and B, 2A and 3A) are measured by stopped-slow as a function of the ligand concentration and derived from fit of the time evolution of the interaction according to the expression ([1])(12) A(x,t)=A0(x)+A1(x)exp{−α(x)t}

[3] = target: prethrombin-2 (S195A mutant); design: method as in PMID 29511224; conditions: fluorescence titration at equilibrium; 400 mM ChCl, 50 mM Tris, 0.1% PEG8000, pH 8, 15 °C; read-out: Kd,app; cited from earlier work
[4] = test system: thrombin mutant S195A; assay: Equilibrium titration of intrinsic fluorescence, FPR binding to thrombin; conditions: thrombin versus prethrombin-2
Description: Figure 3 Binding of FPR to thrombin.A, rapid kinetics of FPR binding to thrombin showing the fast ( α1 ) and slow ( α2 ) relaxations defining a mechanism of binding consistent with IF or CS (see also Fig. 1A). Continuous lines depict Equations 3 and 4 in the original report ([30]) with best-fit parameter values of Equation 1 or Equation 2 listed in Table 2. […] The discontinuous line for the slow relaxation was drawn with the empirical expression [α(0)xm+α(∞)x]/(xm+x) , where x = [FPR], with best-fit parameters listed in Table 2. The discontinuous line for the fast relaxation was drawn using Equation 3 with the four independent rate constants obtained from application of Equation 11 (Table 2). […] The four independent rate constants derived from application of the method compare well with the values determined from application of Equations 3 and 4 in the original report ([30]). […]
The value of Kd,app is obtained from titration of intrinsic fluorescence at equilibrium (Figs. 2B and 3B) according to the expression(13) F(x)=F0Kd,app+F1x/Kd,app+x=F0(1−ϑ)+F1ϑ where ϑ=x/(Kd,app+x) is the fractional saturation (Figs. 1C, 2B and 3B). […] At each value of the ligand concentration, the change in absorbance from the initial ( t=0 ) to final ( t=∞ ) state gives the equilibrium reading equivalent to F(x) in Equation 13.

[5] = CS, from analysis of two relaxations
[6] = model independent, 400 mM ChCl, 50 mM Tris, 0.1% PEG8000, pH 8, 15 °C, fit of data from ref 30
[7] = model independent, pH 8, 15 °C, fit of data from ref 30

αˆ(0)=k12+k21 ([2]; CS, from Equation 9): 19 ± 2 s⁻¹
k12 ([2]; CS, method of this paper): 17 ± 2 s⁻¹
k21 ([2]; CS, method of this paper): 2.0 ± 0.2 s⁻¹
koffCS ([2]; CS, method of this paper): 0.60 ± 0.06 s⁻¹
konCS ([2]; CS, method of this paper (Equation 11)): 2.4e+06 ± 200000 M⁻¹ s⁻¹
k23 ([2]; IF, method of this paper): 13 ± 1 (13 ± 1) s^−1
k32 ([2]; IF, method of this paper): 4.4 ± 0.4 s⁻¹
koffIF ([2]; IF, method of this paper): 2.6 ± 0.3 s⁻¹
konIF ([2]; IF, method of this paper): 2.4e+06 ± 200000 M⁻¹ s⁻¹
kon ([2]; model independent, derived from Equation 11): 2.4e+06 ± 200000 M⁻¹ s⁻¹
α(0), lower asymptote of slow relaxation [2, 6]: 0.60 ± 0.06 s⁻¹
α(∞), asymptote of slow relaxation [2, 6]: 17 ± 2 s⁻¹
xm, midpoint of the slow relaxation [2, 7]: 4.3 ± 0.4 µM
α(xm), slow relaxation at midpoint [2, 7]: 8.8 ± 0.9 s⁻¹
difference in equilibrium binding affinity between prethrombin-2 and thrombin [4]: > 100 fold
Compound: N=C(N)NCCC[C@H](NC(=O)[C@@H]1CCCN1C(=O)[C@H](N)Cc1ccccc1)C(=O)Nc1ccc([N+](=O)[O-])cc1 [FPR, H-D-Phe-Pro-Arg-p-nitroanilide]
k21 [1, 5]: 3.8 ± 0.8 s⁻¹
koffCS [1, 5]: 0.6 ± 0.1 s⁻¹
konCS [1, 5]: 2.6e+06 ± 300000 M⁻¹ s⁻¹
k23 ([1]; IF): 13 ± 1 (13 ± 1) s^−1
k32 ([1]; IF): 2.6 ± 0.3 s⁻¹
koffIF ([1]; IF): 4.4 ± 0.4 s⁻¹
konIF ([1]; IF): 2.6e+06 ± 300000 M⁻¹ s⁻¹
Kd [3]: 37 ± 4 µM
